A value given as a limit tells only on which side of the number the result lay.

This assay deals with T1, KCNT1 (KNa1.1, Slack) (Homo sapiens, UniProt Q5JUK3).
T1 construct: expressed in transfected cells; host or cells: HEK-TREX (tetracycline-inducible HEK cell line)
T1 sequence (Q5JUK3 1-1230): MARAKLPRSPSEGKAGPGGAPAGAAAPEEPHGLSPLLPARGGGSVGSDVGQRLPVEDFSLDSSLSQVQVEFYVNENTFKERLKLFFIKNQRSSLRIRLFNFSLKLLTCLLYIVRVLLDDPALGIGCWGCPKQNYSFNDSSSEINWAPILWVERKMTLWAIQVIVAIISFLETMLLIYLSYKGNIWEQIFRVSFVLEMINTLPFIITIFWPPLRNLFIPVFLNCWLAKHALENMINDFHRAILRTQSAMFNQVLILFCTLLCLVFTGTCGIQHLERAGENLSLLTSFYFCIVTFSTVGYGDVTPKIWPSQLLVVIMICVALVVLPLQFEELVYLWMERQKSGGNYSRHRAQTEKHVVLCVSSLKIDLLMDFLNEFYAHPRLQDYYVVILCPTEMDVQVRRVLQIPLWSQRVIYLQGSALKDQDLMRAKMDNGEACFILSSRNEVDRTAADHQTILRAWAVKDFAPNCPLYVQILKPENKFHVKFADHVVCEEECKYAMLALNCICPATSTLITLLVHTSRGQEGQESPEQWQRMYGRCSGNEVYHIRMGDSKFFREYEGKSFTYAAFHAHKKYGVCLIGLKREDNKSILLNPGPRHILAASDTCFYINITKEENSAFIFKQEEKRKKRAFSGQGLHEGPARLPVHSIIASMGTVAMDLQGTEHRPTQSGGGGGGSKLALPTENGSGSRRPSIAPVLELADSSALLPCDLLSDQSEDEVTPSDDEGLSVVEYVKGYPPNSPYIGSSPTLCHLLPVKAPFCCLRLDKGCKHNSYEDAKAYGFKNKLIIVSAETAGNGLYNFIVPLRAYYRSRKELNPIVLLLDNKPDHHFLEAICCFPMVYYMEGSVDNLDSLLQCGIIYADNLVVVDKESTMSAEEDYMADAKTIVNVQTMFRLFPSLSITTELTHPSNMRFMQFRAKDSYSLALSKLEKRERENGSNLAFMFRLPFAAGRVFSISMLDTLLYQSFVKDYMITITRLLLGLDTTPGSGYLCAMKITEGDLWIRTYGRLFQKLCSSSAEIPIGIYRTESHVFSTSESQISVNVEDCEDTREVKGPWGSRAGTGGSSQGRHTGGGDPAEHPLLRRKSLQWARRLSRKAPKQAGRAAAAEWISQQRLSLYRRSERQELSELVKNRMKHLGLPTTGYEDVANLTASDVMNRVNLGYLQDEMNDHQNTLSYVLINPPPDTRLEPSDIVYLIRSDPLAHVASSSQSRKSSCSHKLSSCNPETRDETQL
Put plainly: KCNT1 patch clamp assay (SyncroPatch 384PE automated patch clamp). The assay is classed as cell-based. The conditions noted are these: tetracycline inducible HEK-TREX cell line; perforated patch; step from −80 mV to 0 mV; room temperature; read-out: KCNT1-WT IC50. Put shortly: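 Tetracycline-inducible HEK-TREX cells; perforated-patch (10 μM escin) population recordings at room temperature, holding −80 mV with 100 ms step to 0 mV.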
For orientation: The patch-clamp technique gives a direct electrical read-out from membranes.

As for `C[C@@H](NC(=O)c1cn(C)nc1C(F)F)c1nc(-c2cccc(F)c2)no1` [Compound 187, (R)-3-(difluoromethyl)-N-(1-(3-(3-fluorophenyl)-1,2,4-oxadiazol-5-yl)ethyl)-1-methyl-1H-pyrazole-4-carboxamide], the IC50 is at least 20 µM. Consider `C[C@H](NC(=O)c1cn(C)nc1C(F)F)c1nc(-c2cccc(F)c2)no1` [Compound 188, (S)-3-(difluoromethyl)-N-(1-(3-(3-fluorophenyl)-1,2,4-oxadiazol-5-yl)ethyl)-1-methyl-1H-pyrazole-4-carboxamide], for which the IC50 is 1 to 20 µM. `CC(NC(=O)c1cc(C(F)(F)F)nn1C)c1nc(-c2cccc(C(N)=O)c2)no1` (stereo not drawn) [Compound 193, N-(1-(3-(3-carbamoylphenyl)-1,2,4-oxadiazol-5-yl)ethyl)-1-methyl-3-(trifluoromethyl)-1H-pyrazole-5-carboxamide]: the IC50 is at least 20 µM. To `COc1cccc(-c2noc([C@H](C)NC(=O)c3cc(C(F)(F)F)nn3C)n2)c1` [Compound 196, (S)—N-(1-(3-(3-methoxyphenyl)-1,2,4-oxadiazol-5-yl)ethyl)-1-methyl-3-(trifluoromethyl)-1H-pyrazole-5-carboxamide] belongs at most 1 µM. The value for `CC[C@H](NC(=O)c1cc(C(F)(F)F)nn1C)c1nc(-c2ccnc(C)c2)no1` [Compound 199, (S)-1-methyl-N-(1-(3-(2-methylpyridin-4-yl)-1,2,4-oxadiazol-5-yl)propyl)-3-(trifluoromethyl)-1H-pyrazole-5-carboxamide] was at most 1 µM. To `CC(C)Oc1cc(-c2noc([C@H](C)NC(=O)c3cc(C(F)(F)F)nn3C)n2)ccn1` [Compound 201, (S)—N-(1-(3-(2-isopropoxypyridin-4-yl)-1,2,4-oxadiazol-5-yl)ethyl)-1-methyl-3-(trifluoromethyl)-1H-pyrazole-5-carboxamide] belongs at most 1 µM. On to `CCOc1cc(-c2noc([C@H](C)NC(=O)c3cc(C(F)(F)F)nn3C)n2)ccn1` [Compound 205, (S)—N-(1-(3-(2-ethoxypyridin-4-yl)-1,2,4-oxadiazol-5-yl)ethyl)-1-methyl-3-(trifluoromethyl)-1H-pyrazole-5-carboxamide], for which the IC50 was at most 1 µM. On to `C[C@H](NC(=O)c1cc(C(F)(F)F)nn1C)c1nc(-c2ccnc(OC3CC3)c2)no1` [Compound 207, (S)—N-(1-(3-(2-cyclopropoxypyridin-4-yl)-1,2,4-oxadiazol-5-yl)ethyl)-1-methyl-3-(trifluoromethyl)-1H-pyrazole-5-carboxamide], for which the IC50 is at most 1 µM.

Turning to `C[C@H](NC(=O)c1cc(C(F)(F)F)nn1C)c1nc(-c2ccnc(OC3CC(F)(F)C3)c2)no1` [Compound 208, (S)—N-(1-(3-(2-(3,3-difluorocyclobutoxy)pyridin-4-yl)-1,2,4-oxadiazol-5-yl)ethyl)-1-methyl-3-(trifluoromethyl)-1H-pyrazole-5-carboxamide], the IC50 is at most 1 µM. The value for `C[C@H](NC(=O)c1cc(C(F)(F)F)nn1C)c1nc(-c2ccnc(OCC(F)F)c2)no1` [Compound 211, (S)—N-(1-(3-(2-(2,2-difluoroethoxy)pyridin-4-yl)-1,2,4-oxadiazol-5-yl)ethyl)-1-methyl-3-(trifluoromethyl)-1H-pyrazole-5-carboxamide] was at most 1 µM. The value for `COC1CN(c2cc(-c3noc([C@H](C)NC(=O)c4cc(C(F)(F)F)nn4C)n3)ccn2)C1` [Compound 213, (S)—N-(1-(3-(2-(3-methoxyazetidin-1-yl)pyridin-4-yl)-1,2,4-oxadiazol-5-yl)ethyl)-1-methyl-3-(trifluoromethyl)-1H-pyrazole-5-carboxamide] was 1 to 20 µM; that for `C[C@H](NC(=O)c1cc(C(F)(F)F)nn1C)c1nc(-c2ccnc(OCC3CC3)c2)no1` [Compound 214, (S)—N-(1-(3-(2-(cyclopropylmethoxy)pyridin-4-yl)-1,2,4-oxadiazol-5-yl)ethyl)-1-methyl-3-(trifluoromethyl)-1H-pyrazole-5-carboxamide] was at most 1 µM. To `CC[C@H](NC(=O)c1ccnn1-c1ccccc1)c1nc(-c2ccnc(C)c2)no1` [Compound 215, (S)—N-(1-(3-(2-methylpyridin-4-yl)-1,2,4-oxadiazol-5-yl)propyl)-1-phenyl-1H-pyrazole-5-carboxamide] belongs 1 to 20 µM; to `CC[C@H](NC(=O)c1ccnn1C1CCCC1)c1nc(-c2ccnc(C)c2)no1` [Compound 216, (S)-1-cyclopentyl-N-(1-(3-(2-methylpyridin-4-yl)-1,2,4-oxadiazol-5-yl)propyl)-1H-pyrazole-5-carboxamide], at most 1 µM; to `CC[C@H](NC(=O)c1cc(C)nn1C1CCOCC1)c1nc(-c2ccnc(C)c2)no1` [Compound 217, (S)-3-methyl-N-(1-(3-(2-methylpyridin-4-yl)-1,2,4-oxadiazol-5-yl)propyl)-1-(tetrahydro-2H-pyran-4-yl)-1H-pyrazole-5-carboxamide], 1 to 20 µM. As to `CC[C@H](NC(=O)c1cc(C)nn1-c1ccccc1)c1nc(-c2ccnc(C)c2)no1` [Compound 218, (S)-3-methyl-N-(1-(3-(2-methylpyridin-4-yl)-1,2,4-oxadiazol-5-yl)propyl)-1-phenyl-1H-pyrazole-5-carboxamide], the IC50 is at most 1 µM. To `CC[C@H](NC(=O)c1ccnn1Cc1ccccc1)c1nc(-c2ccnc(C)c2)no1` [Compound 219, (S)-1-benzyl-N-(1-(3-(2-methylpyridin-4-yl)-1,2,4-oxadiazol-5-yl)propyl)-1H-pyrazole-5-carboxamide] belongs at most 1 µM; to `CC[C@H](NC(=O)c1cc(C(F)(F)F)nn1C(F)F)c1nc(-c2ccnc(C)c2)no1` [Compound 221, (S)-1-(difluoromethyl)-N-(1-(3-(2-methylpyridin-4-yl)-1,2,4-oxadiazol-5-yl)propyl)-3-(trifluoromethyl)-1H-pyrazole-5-carboxamide], at most 1 µM; to `C[C@H](NC(=O)c1cc(C(F)(F)F)nn1C)c1nc(-c2ccnc(N3CC(F)(F)C3)c2)no1` [Compound 222, (S)—N-(1-(3-(2-(3,3-difluoroazetidin-1-yl)pyridin-4-yl)-1,2,4-oxadiazol-5-yl)ethyl)-1-methyl-3-(trifluoromethyl)-1H-pyrazole-5-carboxamide], at most 1 µM. The value for `CC(C)Oc1cc(-c2noc([C@H](C)NC(=O)c3cc(-c4ccc(F)cc4)nn3C)n2)ccn1` [Compound 223, (S)-3-(4-fluorophenyl)-N-(1-(3-(2-isopropoxypyridin-4-yl)-1,2,4-oxadiazol-5-yl)ethyl)-1-methyl-1H-pyrazole-5-carboxamide] was at most 1 µM; that for `CC(C)Oc1cc(-c2noc([C@H](C)NC(=O)c3cc(C(F)(F)F)nn3CC(=O)N(C)C)n2)ccn1` [Compound 224, (S)-1-(2-(dimethylamino)-2-oxoethyl)-N-(1-(3-(2-isopropoxypyridin-4-yl)-1,2,4-oxadiazol-5-yl)ethyl)-3-(trifluoromethyl)-1H-pyrazole-5-carboxamide] was at most 1 µM. The value for `CC[C@H](NC(=O)c1cc(-c2ccccc2)nn1C)c1nc(-c2ccnc(C)c2)no1` [Compound 226, (S)-1-methyl-N-(1-(3-(2-methylpyridin-4-yl)-1,2,4-oxadiazol-5-yl)propyl)-3-phenyl-1H-pyrazole-5-carboxamide] was at most 1 µM.

Turning to `Cc1cc(C(=O)N[C@@H](C)c2nc(-c3ccnc(C4CC4)c3)no2)n(C)n1` [Compound 227, (S)—N-(1-(3-(2-cyclopropylpyridin-4-yl)-1,2,4-oxadiazol-5-yl)ethyl)-1,3-dimethyl-1H-pyrazole-5-carboxamide], the IC50 was at most 1 µM.

Regarding `C[C@H](NC(=O)c1cc(-c2ccc(F)cc2)nn1C)c1nc(-c2ccnc(C3CC3)c2)no1` [Compound 228, (S)—N-(1-(3-(2-cyclopropylpyridin-4-yl)-1,2,4-oxadiazol-5-yl)ethyl)-3-(4-fluorophenyl)-1-methyl-1H-pyrazole-5-carboxamide], the IC50 is at most 1 µM.

What is called IC50 is the concentration needed to halve the response being measured.

These data come from patent US20220259193A1, “KCNT1 INHIBITORS AND METHODS OF USE” (Praxis Precision Medicines, Inc., priority 2019, published 2022).
